# Results as given in patent US5559129A, “Indole derivatives” (priority 1995, dated 1996).
# How the values were obtained:
# [1] = system: plasma protein extravasation response within the dura mater; assay: Inhibition of plasma protein extravasation within the dura mater following unilateral electrical trigeminal ganglion stimulation; assay type: in vivo, guinea pig; details: for minimal effective dose: Cavia porcellus, iv, i.v. in guinea pigs, read-out: M.E.D. (minimally effective dose) for inhibition of plasma protein extravasation
# Description: The active compounds of the present invention are also evaluated via the inhibition of plasma protein extravasation response within the dura mater of guinea pigs following unilateral electrical trigeminal ganglion stimulation. The extent to which they mimic sumatriptan, in terms of both potency and efficacy, is determined in this assay. The procedure is performed on male Hartley guinea pigs (200-250 g, Charles River Laboratories, Wilmington, Mass., U.S.A.) as described in Markowitz et al., J. Neurosci., 7 (12), 4129-4136 (1987) and also in Lee, et al., Brain Reseach, 626, 303-305 (1993). The procedure briefly consists of placing pentobarbitone-anesthetized animals in a stereotaxic frame. ^125 I-BSA (bovine serum albumin) (50 μCi/kg^-1) is first injected into the femoral vein, followed 5 minutes later by drug or vehicle. Bipolar electrodes are then lowered into the trigeminal ganglia, and the right ganglion is stimulated for 5 minutes (1.2 mA, 5 Hz, 5 msec). The animal is then perfused with saline through the left cardiac ventricle and sacrificed, and the dura mater is dissected, weighed, and counted for radioactivity. Cpm/mg wet weight values are determined for the right vs left dura mater, and a ratio for the stimulated vs unstimulated sides is generated for each animal. Unpaired student's t-test is used to statistically compare these ratio values in respective groups treated with vehicle or drug.
# [2] = system: carotid vascular resistance; details: anaesthetized dog; cited from earlier work
# [3] = system: dog isolated saphenous vein strip; details: antagonist of the vein strip contraction; cited from earlier work
# [4] = Solid-state and solubility properties of the α-form of the hydrobromide salt; assay type: physicochemical; details: crystalline α-form of the hydrobromide salt
compound,measurement,setting,value
"CNS(=O)(=O)Cc1ccc2[nH]cc(C[C@H]3CCCN3C)c2c1 [Example 5A, (R)-5-(Methylaminosulfonylmethyl)-3-(N-methylpyrrolidin-2-ylmethyl)-1H-indole]",minimal effective dose,[1],1e-06 µmol/kg
"CNS(=O)(=O)Cc1ccc2[nH]cc(C[C@H]3CCCN3)c2c1 [Example 6A, (R)-5-(Methylaminosulfonylmethyl)-3-(pyrrolidin-2-ylmethyl)-1H-indole]",minimal effective dose,[1],1e-07 µmol/kg
CNS(=O)(=O)Cc1ccc2[nH]cc(CCN(C)C)c2c1 [Sumatriptan],increase in carotid vascular resistance,[2],selective increase in carotid vascular resistance
"CN1C[C@H](CNC(=O)OCc2ccccc2)C[C@@H]2c3cccc4c3c(cn4C)C[C@H]21 [metergoline, reference compound]",block of the effect of the drugs by a known serotonin antagonist,[1]; antagonist of the inhibition of plasma protein extravasation,partially blocked
CSc1ccc2c(c1)C(N1CCN(C)CC1)Cc1ccccc1S2 (centres unmarked) [methiothepin],block of the contractile effect by a known serotonin antagonist,[3],blocked
"Br.CN1CCC[C@@H]1Cc1c[nH]c2ccc(CCS(=O)(=O)c3ccccc3)cc12 [α-form, (R)-5-(2-phenylsulphonylethyl)-3-(N-methylpyrrolidin-2-ylmethyl)-1H-indole hydrobromide]",hygroscopicity,[4],non-hygroscopic
same,solid-state stability,[4],possesses solid-state stability
same,solubility and dissolution behavior,[4],acceptable solubility and dissolution behavior
